Assay results reported in PubChem BioAssay (NCI).
Where “and” joins values, the source holds several entries; their conditions need not be identical. Identical values can stand only once.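 Five compound concentrations were applied to cells in 96-well plates for 48 hours; endpoints were derived by simple linear interpolation of the resulting dose-response curve. At the GI50, growth is halved. At the TGI there is no net growth.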

Columns and labels:
Test in all cases: NCI tumour cell line growth inhibition, 48 h
PC-3 prostate = tested on: PC-3 prostate
COLO 205 colon = tested on: COLO 205 colon
NCI-H522 lung = tested on: NCI-H522 lung
LOX IMVI melanoma = tested on: LOX IMVI melanoma
MCF7 breast = tested on: MCF7 breast
SF-295 CNS = tested on: SF-295 CNS
SF-539 CNS = tested on: SF-539 CNS
SW-620 colon = tested on: SW-620 colon
DU-145 prostate = tested on: DU-145 prostate
OVCAR-4 ovarian = tested on: OVCAR-4 ovarian

Structure (SMILES) | GI50 (PC-3 prostate) | TGI (PC-3 prostate) | GI50 (COLO 205 colon) | TGI (COLO 205 colon) | GI50 (NCI-H522 lung) | TGI (NCI-H522 lung) | GI50 (LOX IMVI melanoma) | TGI (LOX IMVI melanoma) | GI50 (MCF7 breast) | TGI (MCF7 breast) | GI50 (SF-295 CNS) | TGI (SF-295 CNS) | GI50 (SF-539 CNS) | TGI (SF-539 CNS) | GI50 (SW-620 colon) | TGI (SW-620 colon) | GI50 (DU-145 prostate) | TGI (DU-145 prostate) | GI50 (OVCAR-4 ovarian) | TGI (OVCAR-4 ovarian)
C=CC[P+](c1ccccc1)(c1ccccc1)c1ccccc1 | 1.78 µM | 33.5 µM | 2.66 µM | 14.1 µM | 1.99 µM | 20.8 µM | 6.53 µM | > 100 µM | 2.84 µM | > 100 µM | 4.58 µM | 28.2 µM | 8.42 µM | > 100 µM | 5.64 µM | > 100 µM | 7.33 µM | > 100 µM | 2.84 µM | > 100 µM
C=CC(C)(O)/C=C/C=C(\C)C(CC1OC1(C)C)OC(=O)/C(C)=C\C (stereo not given) | – | > 100 µM | – | > 100 µM | – | > 100 µM | – | > 100 µM | – | > 100 µM | – | > 100 µM | – | > 100 µM | – | > 100 µM | – | > 100 µM | – | > 100 µM
CC(=O)O[C@H](C[C@H](C(C)C)N(C)C(=O)[C@@H](NC(=O)[C@H]1CCCCN1C)C(C)C)c1nc(C(=O)N[C@@H](Cc2ccccc2)C[C@H](C)C(=O)O)c(C(C)C)s1 | < 0.00333 µM | > 33.3 µM | < 0.00333 µM | < 0.033 µM | < 0.00333 µM | 0.499 µM | < 0.00333 µM | 10.5 µM | < 0.00333 µM | > 33.3 µM | < 0.00333 µM | 0.297 µM | < 0.00333 µM | 0.00391 µM | < 0.00333 µM | > 33.3 µM | < 0.00333 µM | 0.0827 µM | 0.00673 µM | > 33.3 µM
COC(=O)c1ccc(NC(=O)Nc2ccc3oc(=O)c4ccccc4c3c2)cc1 | 36.2 µM | > 100 µM | 32.5 µM | > 100 µM | 27.8 µM | > 100 µM | 39.2 µM | > 100 µM | 35.2 µM | > 100 µM | 55.9 µM | > 100 µM | 62.5 µM | > 100 µM | 30.9 µM | 98.3 µM | 56.1 µM | > 100 µM | 33.5 µM | > 100 µM
CC/C=C\C/C=C\C[C@H](O)C/C=C1/C(=O)C=C[C@@H]1C/C=C\CCCC(=O)O | 6.03 µM | 21.5 µM | 3.78 µM | 10.9 µM | 1.71 µM | 3.78 µM | 1.74 µM | 3.74 µM | 2.96 µM | 18.5 µM | 7.86 µM | 22.4 µM | 3.85 µM | 15.2 µM | 4.46 µM | 70.6 µM | 5.17 µM | 19 µM | 4.15 µM | 20 µM
O=C(O)CCC(=O)c1ccc2ccc3cccc4ccc1c2c34 | – | > 100 µM | – | > 100 µM | – | > 100 µM | – | > 100 µM | – | > 100 µM | – | > 100 µM | – | 68 µM | – | > 100 µM | – | > 100 µM | – | > 100 µM
O=C(Nc1ccc(Oc2ccc3nc(NC(=O)c4ccccc4)[nH]c3c2)cc1)Nc1cc(C(F)(F)F)ccc1F | 0.624 µM | 2.76 µM | 1.12 µM | 6.7 µM | 1.6 µM | > 14.9 µM | 0.97 µM | > 10.8 µM | 0.758 µM | 5.14 µM | 0.71 µM | 4.49 µM | 1.81 µM | 18.5 µM | 1.27 µM | > 25 µM | 1.32 µM | 16.6 µM | 0.678 µM | 2.71 µM
CCOc1cc2c(cc1O)/C(=N\O)C[C@@H]1[C@@H]2CC[C@]2(C)[C@@H](O)CC[C@@H]12 | 0.767 µM and 0.491 µM | > 100 µM | 0.00176 µM | – | – | – | 0.00721 µM | > 63.8 µM | 0.0264 µM | – | 0.00322 µM and 0.0266 µM | 0.081 µM and 0.0784 µM | 0.0269 µM | – | 0.0234 µM and 0.0382 µM | > 100 µM | 0.0232 µM | > 100 µM | 8.67 µM | > 100 µM
COc1ccc(C2=NN(C(=O)c3cc(OC)c(OC)c(OC)c3)C(c3ccc(Cl)cc3)C2)cc1OC (stereo not given) | 1.07 µM | > 100 µM | 2.44 µM | > 100 µM | 1.48 µM | > 24.3 µM | 3.63 µM | > 100 µM | 0.398 µM | 14.7 µM | 0.565 µM | > 100 µM | 2.06 µM | > 82.8 µM | 1.6 µM | > 100 µM | 3.62 µM | > 58.9 µM | 5.22 µM | 49.6 µM
COC(=O)[C@]12CC[C@@H](C)[C@H](C)[C@@H]1C1=CC[C@@H]3[C@@]4(C)C(C=O)=C[C@@](C)(COC(=O)c5ccco5)[C@@H]4C(=O)C[C@@]3(C)[C@]1(C)CC2 | 3.66 µM | > 100 µM | 0.0314 µM | 0.0971 µM | 7.63 µM | > 100 µM | 4.42 µM | 31.2 µM | 4.07 µM | 44.2 µM | 3.99 µM | > 100 µM | 23 µM | > 100 µM | 4.9 µM | > 100 µM | 8.8 µM | > 100 µM | 3.57 µM | > 100 µM
CN(C)c1ccc(/C=C(\C#N)c2nc3ccccc3n2C)cc1 | 3.91 µM | > 48.8 µM | 1.63 µM | 9.26 µM | 1.7 µM | 16 µM | 5.68 µM | > 62.2 µM | 0.612 µM | > 76 µM | 1.9 µM | 16.9 µM | 2.24 µM | 6.94 µM | 0.921 µM | > 60.1 µM | 2.99 µM | 13.1 µM | 4.22 µM | > 21.9 µM
O=[N+]([O-])c1ccc2c(N3CCC(CCCC4CCN(c5ncnc6cc([N+](=O)[O-])ccc56)CC4)CC3)ncnc2c1 | 8.96 µM | > 100 µM | 11.5 µM | > 100 µM | > 45.9 µM | > 100 µM | 29.7 µM | > 100 µM | 0.619 µM | > 59.3 µM | 5.53 µM | > 100 µM | > 47.9 µM | > 100 µM | > 48 µM | > 100 µM | > 96.2 µM | > 100 µM | 21.5 µM | > 100 µM
Oc1c(CN2CCCC2)cc(COCc2ccc(Br)cc2)c2cccnc12 | 1.01 µM | 5.97 µM | 4.62 µM | 18.7 µM | 0.297 µM | 1.17 µM | 0.37 µM | 1.54 µM | 0.316 µM | 1.37 µM | 1.19 µM | 3.98 µM | 1.11 µM | 2.85 µM | 0.574 µM | 7.21 µM | 0.868 µM | 11 µM | 0.508 µM | 3.02 µM
